“Also recorded” adds a separate entry of the source. Where two headings read alike, the source gives them in different places.

Here are results for three molecules from US12162913B2 (priority 2016, dated 2024).

Assay [1] addresses R. microplus nAChRα6 (Rma6) homopentamers (Rhipicephalus microplus, UniProt A0A223PM23). Put plainly: Two-electrode voltage clamp on Xenopus oocytes expressing Rmα6 homopentamers. It is filed as cell-based. The protocol:
(§1) The plasmids containing the sequences of choice were linearized using BeuI (Spel) FastDigest (ThermoFisher) restriction enzyme for 30 min at 37°, and an aliquot run on an agarose gel to check for complete linearization. The plasmid DNA was phenol:chloroform purified and ethanol precipitated. The pellet was re-suspended in deionized water. Capped RNA was synthesized using mMessage mMachine T7 kit from 1 μg linearized plasmid DNA, the sample phenol:chloroform purified and isopropanol precipitated. The pellet was re-suspended in deionized water to a concentration of 500 ng/μl, analysed on an agarose gel for integrity and stored at −80° C. until further use.
(§2) Xenopus laevis oocytes were purchased as whole ovaries from the European Xenopus Resource Centre (University of Portsmouth), delivered in less than 24 h in Modified Barth's Saline (MBS) on wet ice. Upon arrival, the oocytes were treated with 2 mg/ml collagenase type I (Sigma-Aldrich) in calcium-free Barth's solution (NaCl 88 mM, Tris-HCl 15 mM, NaHCO32.4 mM, MgCl2 0.82 mM, KCl 1 mM, pH 7.5) for 30 min at room temperature. The separated oocytes were rinsed thoroughly in calcium-free Barth's solution, manually de-folliculated and injected using a Drummond microinjector with 25 ng/oocyte capped RNA. The oocytes were incubated at 18° C. in calcium-containing ([…]) Barth's solution supplemented with 4 μg/ml Kanamycin, 50 μg/ml Tetracycline, 100 U/ml Penicillin and 100 μg/ml Streptomycin. Two-electrode voltage clamp recordings were performed after 3-5 days using an OC-725C oocyte clamp (Warner instruments) with the membrane potential clamped at −60 mV. The oocytes were continuously perfused with frog Ringer's solution (NaCl 115 mM, KCl 2.5 mM, CaCl2) 1.8 mM and HEPES 10 mM) and the dilutions of ligands prepared in Ringer's saline applied using a VC-8 multi-valve perfusion system (Warner Instruments). Following ligand application, the current required to maintain the membrane potential at −60 mV was measured and used for subsequent data analysis.
(§3) Two-electrode voltage clamp electrophysiology data acquisition was done using LabScribe software (iWorks Systems) and the data transferred to GraphPad Prism (GraphPad Software) for traces analysis and dose-response curve fitting.

The target in assay [2] is R. microplus nAChRα5 (Rmα5) homopentamers (Rhipicephalus microplus, UniProt A0A223PM17, I539V). It is filed as cell-based. The protocol: as §1, §2, §3
R. microplus nAChRα5 (Rmα5) homopentamers, sequence (A0A223PM17 entry or part of it I539V): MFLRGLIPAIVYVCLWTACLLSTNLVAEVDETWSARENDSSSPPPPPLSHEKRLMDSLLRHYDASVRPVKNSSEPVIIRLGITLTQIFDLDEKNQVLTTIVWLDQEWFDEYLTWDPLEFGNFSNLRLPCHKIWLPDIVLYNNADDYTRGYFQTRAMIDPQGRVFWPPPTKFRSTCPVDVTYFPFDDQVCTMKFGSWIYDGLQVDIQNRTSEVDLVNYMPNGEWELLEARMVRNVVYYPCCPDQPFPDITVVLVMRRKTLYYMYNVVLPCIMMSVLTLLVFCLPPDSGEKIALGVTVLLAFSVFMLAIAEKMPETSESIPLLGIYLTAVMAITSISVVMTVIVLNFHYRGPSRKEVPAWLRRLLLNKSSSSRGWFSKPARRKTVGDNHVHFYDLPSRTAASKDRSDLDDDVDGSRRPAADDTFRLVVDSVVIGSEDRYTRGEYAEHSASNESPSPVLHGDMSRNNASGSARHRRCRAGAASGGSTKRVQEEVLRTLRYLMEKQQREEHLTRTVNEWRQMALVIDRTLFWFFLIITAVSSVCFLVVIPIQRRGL

R. microplus nAChRα6 (Rma6) homopentamers, sequence (A0A223PM23 entry or part of it): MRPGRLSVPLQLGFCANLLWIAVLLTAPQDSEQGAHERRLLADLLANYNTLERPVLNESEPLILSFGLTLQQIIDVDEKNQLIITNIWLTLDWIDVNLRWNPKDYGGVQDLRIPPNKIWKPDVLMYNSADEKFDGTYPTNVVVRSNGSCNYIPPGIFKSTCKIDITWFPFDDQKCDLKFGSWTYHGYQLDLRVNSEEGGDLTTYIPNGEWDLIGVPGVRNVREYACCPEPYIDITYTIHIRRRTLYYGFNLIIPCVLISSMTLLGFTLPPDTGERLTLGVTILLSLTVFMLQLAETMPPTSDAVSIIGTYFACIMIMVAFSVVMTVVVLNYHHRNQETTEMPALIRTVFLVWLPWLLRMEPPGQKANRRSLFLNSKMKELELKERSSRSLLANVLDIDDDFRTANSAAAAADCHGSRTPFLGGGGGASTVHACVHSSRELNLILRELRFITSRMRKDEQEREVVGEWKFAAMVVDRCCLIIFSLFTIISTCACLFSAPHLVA

In general, EC50 refers to the concentration giving half of the maximal effect. For `CC(=O)OCC[N+](C)(C)C` [ACh, acetylcholine], the EC50 in assay [1] (membrane potential clamped at −60 mV, dose-response curve, read-out: EC50 (activation of Rma6 receptor)) was 1.97 ± 1.2 µM.

As to `O=[N+]([O-])NC1=NCCN1Cc1ccc(Cl)nc1` [Imidacloprid, imidacloprid], in assay [1], the “action on Rma6 receptor” value was “partial agonist” and the “character of responses on Rma6” value is listed as “small, non-desensitizing responses”. The “action on Rma6 receptor” value in assay [1] (listed as imidacloprid) is recorded as “induced responses”.

spinosad: in assay [1], the “action on Rma6 receptor” value was “does not directly activate; also recorded: type II allosteric modulator”. In addition, the “EC50 of spinosad lower than ACh EC50 (fold)” value in assay [2] (Rmα5 receptor) is “over 10 times”. The “action on Rmα5 receptor” value in assay [2] (Xenopus oocytes) is reported as “higher efficacy than ACh; also recorded: agonist”. For the same molecule, the “character of responses on Rmα5” value in assay [2] (Xenopus oocytes, ACh 300 μM, spinosad 30 μM representative traces) was “large and also non-desensitizing”. The “time to response plateau” value in assay [2] (during application) is recorded as “around 30 s”. The “time to first signs of depolarization” value in assay [2] (during perfusion) is listed as “about 15 s”.
